Data as given in ChEMBL document CHEMBL1743201, “Casarett and Doull's Toxicology The Basic Science of Poisons, 7th edition” (2008).

Assays:
Format in all cases: ADME
Sulfotransferase 1E1 = target: T1, Sulfotransferase 1E1 (Homo sapiens, UniProt P49888); experiment: Major substrate of human cytosolic sulfotransferase SULT1E1
T1 sequence (P49888 whole entry): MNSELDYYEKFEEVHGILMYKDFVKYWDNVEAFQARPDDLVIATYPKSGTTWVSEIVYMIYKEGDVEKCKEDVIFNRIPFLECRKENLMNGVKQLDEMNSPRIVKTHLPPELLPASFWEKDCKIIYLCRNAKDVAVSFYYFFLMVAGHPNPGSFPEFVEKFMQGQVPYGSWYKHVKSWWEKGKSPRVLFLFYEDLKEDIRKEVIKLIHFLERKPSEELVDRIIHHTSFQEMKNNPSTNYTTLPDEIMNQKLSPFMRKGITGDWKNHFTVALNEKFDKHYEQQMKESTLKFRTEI

Sulfotransferase 2A1 = target: T2, Sulfotransferase 2A1 (Homo sapiens, UniProt Q06520); experiment: Major substrate of human cytosolic sulfotransferase SULT2A1
T2 sequence (Q06520 whole entry): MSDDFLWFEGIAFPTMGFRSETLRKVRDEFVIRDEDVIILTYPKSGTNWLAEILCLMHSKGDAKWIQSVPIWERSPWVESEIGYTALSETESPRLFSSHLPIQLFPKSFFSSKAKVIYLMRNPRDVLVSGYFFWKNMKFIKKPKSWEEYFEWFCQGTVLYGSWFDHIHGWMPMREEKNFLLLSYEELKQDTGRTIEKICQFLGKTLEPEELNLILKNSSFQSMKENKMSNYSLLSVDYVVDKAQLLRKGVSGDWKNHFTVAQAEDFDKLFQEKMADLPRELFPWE

Sulfotransferase 1A1 = Sulfotransferase 1A1 (Homo sapiens, UniProt P50225); experiment: Major substrate of human cytosolic sulfotransferase SULT1A1
[1] = target: T3, UDP-glucuronosyltransferase 1A3 (Homo sapiens, UniProt P35503); experiment: Substrate of human UDP-glucuronosyltransferase UGT1A3
T3 sequence (P35503 whole entry): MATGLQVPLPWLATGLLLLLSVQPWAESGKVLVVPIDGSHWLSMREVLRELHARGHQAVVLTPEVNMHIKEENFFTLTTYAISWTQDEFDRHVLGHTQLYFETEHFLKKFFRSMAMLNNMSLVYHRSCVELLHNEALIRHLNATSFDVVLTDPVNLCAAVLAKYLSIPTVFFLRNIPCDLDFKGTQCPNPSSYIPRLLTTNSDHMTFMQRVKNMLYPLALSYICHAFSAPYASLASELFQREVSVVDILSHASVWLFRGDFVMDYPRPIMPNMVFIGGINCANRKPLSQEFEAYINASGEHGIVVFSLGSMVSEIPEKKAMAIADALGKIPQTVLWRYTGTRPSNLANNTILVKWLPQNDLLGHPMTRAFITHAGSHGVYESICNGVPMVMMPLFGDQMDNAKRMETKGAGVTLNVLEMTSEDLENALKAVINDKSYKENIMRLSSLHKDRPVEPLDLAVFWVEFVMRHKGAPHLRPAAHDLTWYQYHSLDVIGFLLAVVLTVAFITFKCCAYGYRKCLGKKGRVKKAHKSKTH

[2] = target: UDP-glucuronosyltransferase 2B28 (Homo sapiens, UniProt Q9BY64); experiment: Substrate of human UDP-glucuronosyltransferase UGT2B28
[3] = target: T4, UDP-glucuronosyltransferase 1A6 (Homo sapiens, UniProt P19224); experiment: Substrate of human UDP-glucuronosyltransferase UGT1A6
T4 sequence (P19224 whole entry): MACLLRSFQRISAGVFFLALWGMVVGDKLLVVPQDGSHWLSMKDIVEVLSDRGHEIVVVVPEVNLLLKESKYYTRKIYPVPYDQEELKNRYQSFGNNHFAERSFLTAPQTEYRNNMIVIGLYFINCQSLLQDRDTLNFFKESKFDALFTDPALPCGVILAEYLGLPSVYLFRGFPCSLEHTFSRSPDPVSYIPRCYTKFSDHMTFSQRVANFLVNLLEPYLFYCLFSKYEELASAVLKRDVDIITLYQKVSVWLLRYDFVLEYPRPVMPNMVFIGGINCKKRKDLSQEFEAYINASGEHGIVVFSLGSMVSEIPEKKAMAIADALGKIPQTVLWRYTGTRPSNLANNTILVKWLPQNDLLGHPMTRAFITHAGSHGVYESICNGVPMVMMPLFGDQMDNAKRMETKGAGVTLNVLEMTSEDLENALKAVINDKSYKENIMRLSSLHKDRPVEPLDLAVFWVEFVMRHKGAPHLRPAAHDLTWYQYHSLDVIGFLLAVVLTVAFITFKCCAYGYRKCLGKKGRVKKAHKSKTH

[4] = target: T5, UDP-glucuronosyltransferase 1A9 (Homo sapiens, UniProt O60656); experiment: Substrate of human UDP-glucuronosyltransferase UGT1A9
T5 sequence (O60656 whole entry): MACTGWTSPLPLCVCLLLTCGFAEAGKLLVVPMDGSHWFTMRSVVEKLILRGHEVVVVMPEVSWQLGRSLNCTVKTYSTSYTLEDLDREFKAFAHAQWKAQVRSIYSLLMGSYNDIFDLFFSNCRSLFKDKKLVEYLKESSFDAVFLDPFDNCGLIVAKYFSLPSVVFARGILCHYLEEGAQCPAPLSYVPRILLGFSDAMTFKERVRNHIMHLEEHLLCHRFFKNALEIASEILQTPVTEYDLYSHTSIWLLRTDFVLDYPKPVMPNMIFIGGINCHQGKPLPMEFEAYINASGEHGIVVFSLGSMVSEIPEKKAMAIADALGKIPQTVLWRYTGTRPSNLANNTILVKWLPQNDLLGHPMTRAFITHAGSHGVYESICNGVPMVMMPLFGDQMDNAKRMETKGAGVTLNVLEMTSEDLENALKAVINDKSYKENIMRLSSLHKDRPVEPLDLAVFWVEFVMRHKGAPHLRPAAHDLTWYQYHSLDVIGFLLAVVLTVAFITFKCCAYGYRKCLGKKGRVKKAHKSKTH

[5] = target: UDP-glucuronosyltransferase 2A1 (Homo sapiens, UniProt P0DTE4); experiment: Substrate of human UDP-glucuronosyltransferase UGT2A1
[6] = target: T6, UDP-glucuronosyltransferase 2B7 (Homo sapiens, UniProt P16662); experiment: Substrate of human UDP-glucuronosyltransferase UGT2B7
T6 sequence (P16662 whole entry): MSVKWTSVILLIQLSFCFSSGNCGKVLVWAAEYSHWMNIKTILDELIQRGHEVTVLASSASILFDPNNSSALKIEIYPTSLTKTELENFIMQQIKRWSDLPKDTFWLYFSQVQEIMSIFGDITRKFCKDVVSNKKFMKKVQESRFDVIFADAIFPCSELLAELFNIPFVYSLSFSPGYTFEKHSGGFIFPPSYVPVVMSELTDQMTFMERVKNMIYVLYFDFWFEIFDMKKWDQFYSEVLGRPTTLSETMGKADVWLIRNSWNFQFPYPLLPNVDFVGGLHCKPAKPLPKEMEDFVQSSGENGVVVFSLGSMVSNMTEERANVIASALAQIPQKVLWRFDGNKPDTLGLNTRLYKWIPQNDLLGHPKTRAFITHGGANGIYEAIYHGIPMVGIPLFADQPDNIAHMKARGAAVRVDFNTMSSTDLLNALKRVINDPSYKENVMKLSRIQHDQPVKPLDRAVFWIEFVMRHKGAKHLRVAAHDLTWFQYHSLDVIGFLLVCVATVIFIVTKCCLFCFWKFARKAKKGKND

[7] = target: T7, UDP-glucuronosyltransferase 2B17 (Homo sapiens, UniProt O75795); experiment: Substrate of human UDP-glucuronosyltransferase UGT2B17
T7 sequence (O75795 whole entry): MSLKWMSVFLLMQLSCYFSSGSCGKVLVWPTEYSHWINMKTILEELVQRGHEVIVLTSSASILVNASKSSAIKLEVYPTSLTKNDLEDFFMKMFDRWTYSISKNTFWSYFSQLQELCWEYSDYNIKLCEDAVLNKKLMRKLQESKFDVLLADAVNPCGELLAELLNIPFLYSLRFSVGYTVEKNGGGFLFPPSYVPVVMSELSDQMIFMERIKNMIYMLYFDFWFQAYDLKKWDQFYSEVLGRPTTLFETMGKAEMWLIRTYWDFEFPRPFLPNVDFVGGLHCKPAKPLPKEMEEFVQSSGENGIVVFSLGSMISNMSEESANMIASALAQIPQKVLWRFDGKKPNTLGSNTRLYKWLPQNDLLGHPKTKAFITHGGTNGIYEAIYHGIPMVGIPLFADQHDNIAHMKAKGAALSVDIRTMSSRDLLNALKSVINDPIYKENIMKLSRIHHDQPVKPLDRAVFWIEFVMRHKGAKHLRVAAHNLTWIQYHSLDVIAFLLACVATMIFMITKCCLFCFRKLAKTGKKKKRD

Sulfotransferase 2B1 [8] = target: T8, Sulfotransferase 2B1 (Homo sapiens, UniProt O00204); experiment: Major substrate of human cytosolic sulfotransferase SULT2B1_v2
T8 sequence (O00204 whole entry): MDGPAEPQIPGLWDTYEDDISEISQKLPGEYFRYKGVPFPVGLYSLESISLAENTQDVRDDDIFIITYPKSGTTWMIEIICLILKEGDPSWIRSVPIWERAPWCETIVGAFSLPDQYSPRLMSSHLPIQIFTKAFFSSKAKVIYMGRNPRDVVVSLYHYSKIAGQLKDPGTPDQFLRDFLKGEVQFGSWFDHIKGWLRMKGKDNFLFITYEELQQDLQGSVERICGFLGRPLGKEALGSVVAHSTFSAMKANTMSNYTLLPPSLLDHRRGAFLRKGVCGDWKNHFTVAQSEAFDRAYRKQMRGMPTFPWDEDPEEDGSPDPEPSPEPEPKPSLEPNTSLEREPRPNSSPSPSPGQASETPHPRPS

[9] = target: T9, Glutathione S-transferase kappa 1 (Homo sapiens, UniProt Q9Y2Q3); experiment: Substrates for human mitochondrial glutathione transferase GSTK1
T9 sequence (Q9Y2Q3 whole entry): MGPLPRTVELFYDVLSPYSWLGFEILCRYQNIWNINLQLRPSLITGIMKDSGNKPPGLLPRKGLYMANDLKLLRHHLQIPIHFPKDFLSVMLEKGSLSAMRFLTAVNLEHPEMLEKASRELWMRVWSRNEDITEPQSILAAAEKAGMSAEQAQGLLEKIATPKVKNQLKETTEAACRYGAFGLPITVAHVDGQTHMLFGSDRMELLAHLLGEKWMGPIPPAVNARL

[10] = target: Glutathione S-transferase Mu 4 (Homo sapiens, UniProt Q03013); experiment: Substrates for human cytosolic glutathione transferase GSTM4
[11] = target: Glutathione S-transferase Mu 5 (Homo sapiens, UniProt P46439); experiment: Substrates for human cytosolic glutathione transferase GSTM5
[12] = target: T10, Microsomal glutathione S-transferase 1 (Homo sapiens, UniProt P10620); experiment: Substrates for human microsomal glutathione transferase MGST1
T10 sequence (P10620 whole entry): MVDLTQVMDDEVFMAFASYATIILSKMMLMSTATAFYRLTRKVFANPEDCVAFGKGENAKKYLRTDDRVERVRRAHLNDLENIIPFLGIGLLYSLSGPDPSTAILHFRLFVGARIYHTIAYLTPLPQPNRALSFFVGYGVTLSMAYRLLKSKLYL

[13] = target: Microsomal glutathione S-transferase 2 (Homo sapiens, UniProt Q99735); experiment: Substrates for human microsomal glutathione transferase MGST2
[14] = target: Glutathione S-transferase 3, mitochondrial (Homo sapiens, UniProt O14880); experiment: Substrates for human microsomal glutathione transferase MGST3
[15] = target: Glutathione S-transferase omega-1 (Homo sapiens, UniProt P78417); experiment: Substrates for human cytosolic glutathione transferase GSTO1
[16] = target: Glutathione S-transferase omega-2 (Homo sapiens, UniProt Q9H4Y5); experiment: Substrates for human cytosolic glutathione transferase GSTO2
[17] = target: T11, UDP-glucuronosyltransferase 1A8 (Homo sapiens, UniProt Q9HAW9); experiment: Substrate of human UDP-glucuronosyltransferase UGT1A8
T11 sequence (Q9HAW9 whole entry): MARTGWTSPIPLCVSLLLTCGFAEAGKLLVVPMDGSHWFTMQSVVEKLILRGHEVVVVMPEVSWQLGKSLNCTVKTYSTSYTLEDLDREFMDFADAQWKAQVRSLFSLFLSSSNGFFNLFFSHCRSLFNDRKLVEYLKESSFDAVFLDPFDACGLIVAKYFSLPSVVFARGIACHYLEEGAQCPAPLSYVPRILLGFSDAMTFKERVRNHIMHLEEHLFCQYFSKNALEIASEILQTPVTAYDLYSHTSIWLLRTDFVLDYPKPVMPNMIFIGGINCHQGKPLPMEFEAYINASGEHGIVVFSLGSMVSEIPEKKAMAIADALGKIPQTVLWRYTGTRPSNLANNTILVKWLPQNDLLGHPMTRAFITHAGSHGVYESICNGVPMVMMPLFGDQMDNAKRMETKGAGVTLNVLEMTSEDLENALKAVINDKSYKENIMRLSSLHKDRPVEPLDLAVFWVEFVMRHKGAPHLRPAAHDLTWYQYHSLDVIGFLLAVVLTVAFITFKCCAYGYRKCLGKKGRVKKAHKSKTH

Sulfotransferase 2B1 [18] = target: T8, Sulfotransferase 2B1; experiment: Major substrate of human cytosolic sulfotransferase SULT2B1_v1

Measured: Activity

Sequence of UDP-glucuronosyltransferase 2A1 (P0DTE4 whole entry): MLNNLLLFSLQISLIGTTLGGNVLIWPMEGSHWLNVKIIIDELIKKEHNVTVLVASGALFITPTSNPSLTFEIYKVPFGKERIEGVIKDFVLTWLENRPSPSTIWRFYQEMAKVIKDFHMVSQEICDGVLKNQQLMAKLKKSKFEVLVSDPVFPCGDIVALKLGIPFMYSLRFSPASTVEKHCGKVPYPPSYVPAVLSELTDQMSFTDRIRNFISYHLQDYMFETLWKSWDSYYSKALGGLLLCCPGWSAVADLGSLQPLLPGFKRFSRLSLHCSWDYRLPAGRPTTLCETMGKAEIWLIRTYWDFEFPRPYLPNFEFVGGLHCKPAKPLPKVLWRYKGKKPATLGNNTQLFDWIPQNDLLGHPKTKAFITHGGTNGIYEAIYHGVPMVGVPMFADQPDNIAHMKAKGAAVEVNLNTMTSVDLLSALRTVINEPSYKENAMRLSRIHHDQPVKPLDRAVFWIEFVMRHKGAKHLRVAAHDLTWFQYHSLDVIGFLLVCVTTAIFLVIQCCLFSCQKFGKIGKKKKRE
Sequence of UDP-glucuronosyltransferase 2B28 (Q9BY64 whole entry): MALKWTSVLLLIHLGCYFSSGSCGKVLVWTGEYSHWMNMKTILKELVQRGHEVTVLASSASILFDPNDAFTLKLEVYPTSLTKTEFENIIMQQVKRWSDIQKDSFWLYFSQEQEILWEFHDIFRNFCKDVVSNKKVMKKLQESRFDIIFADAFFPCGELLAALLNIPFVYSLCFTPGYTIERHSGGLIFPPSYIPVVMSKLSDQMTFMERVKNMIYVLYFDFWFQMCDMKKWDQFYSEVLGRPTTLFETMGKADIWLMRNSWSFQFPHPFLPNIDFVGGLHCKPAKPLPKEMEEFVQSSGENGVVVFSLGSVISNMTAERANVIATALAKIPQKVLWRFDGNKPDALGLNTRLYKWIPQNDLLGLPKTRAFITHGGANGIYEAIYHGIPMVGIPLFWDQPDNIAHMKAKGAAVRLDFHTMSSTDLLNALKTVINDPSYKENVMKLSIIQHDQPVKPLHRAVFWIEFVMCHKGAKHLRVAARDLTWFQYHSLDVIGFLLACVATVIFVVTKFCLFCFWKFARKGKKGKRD
Sequence of Glutathione S-transferase 3, mitochondrial (O14880 whole entry): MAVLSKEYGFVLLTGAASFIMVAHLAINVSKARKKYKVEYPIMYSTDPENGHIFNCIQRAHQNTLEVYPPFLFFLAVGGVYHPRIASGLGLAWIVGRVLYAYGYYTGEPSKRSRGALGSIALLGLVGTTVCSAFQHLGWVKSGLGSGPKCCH
Sequence of Glutathione S-transferase omega-1 (P78417 whole entry): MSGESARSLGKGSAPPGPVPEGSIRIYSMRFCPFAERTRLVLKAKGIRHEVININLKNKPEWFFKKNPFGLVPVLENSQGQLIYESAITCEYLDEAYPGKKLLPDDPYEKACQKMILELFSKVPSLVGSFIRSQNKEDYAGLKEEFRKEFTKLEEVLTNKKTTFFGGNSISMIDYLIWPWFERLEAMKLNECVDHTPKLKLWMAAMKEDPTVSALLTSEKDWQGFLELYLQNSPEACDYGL
Sequence of Glutathione S-transferase omega-2 (Q9H4Y5 whole entry): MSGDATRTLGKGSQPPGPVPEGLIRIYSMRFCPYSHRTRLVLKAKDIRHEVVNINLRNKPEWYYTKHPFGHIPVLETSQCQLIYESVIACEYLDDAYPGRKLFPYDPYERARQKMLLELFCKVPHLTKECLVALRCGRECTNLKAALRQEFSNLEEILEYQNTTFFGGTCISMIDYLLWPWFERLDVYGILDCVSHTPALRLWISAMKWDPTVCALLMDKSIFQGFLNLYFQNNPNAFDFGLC
Sequence of Glutathione S-transferase Mu 4 (Q03013 whole entry): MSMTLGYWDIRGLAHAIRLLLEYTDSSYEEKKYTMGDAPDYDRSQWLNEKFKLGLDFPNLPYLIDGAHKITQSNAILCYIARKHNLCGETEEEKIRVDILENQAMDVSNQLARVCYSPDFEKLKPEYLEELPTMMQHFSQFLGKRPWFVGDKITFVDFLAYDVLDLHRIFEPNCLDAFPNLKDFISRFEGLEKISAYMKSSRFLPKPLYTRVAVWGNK
Sequence of Glutathione S-transferase Mu 5 (P46439 whole entry): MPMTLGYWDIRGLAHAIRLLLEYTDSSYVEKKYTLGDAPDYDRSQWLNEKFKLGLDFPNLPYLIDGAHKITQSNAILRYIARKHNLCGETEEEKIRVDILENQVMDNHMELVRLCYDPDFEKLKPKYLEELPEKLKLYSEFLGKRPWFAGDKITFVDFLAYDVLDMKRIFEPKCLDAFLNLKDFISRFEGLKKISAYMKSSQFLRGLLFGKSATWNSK
Sequence of Sulfotransferase 1A1 (P50225 whole entry): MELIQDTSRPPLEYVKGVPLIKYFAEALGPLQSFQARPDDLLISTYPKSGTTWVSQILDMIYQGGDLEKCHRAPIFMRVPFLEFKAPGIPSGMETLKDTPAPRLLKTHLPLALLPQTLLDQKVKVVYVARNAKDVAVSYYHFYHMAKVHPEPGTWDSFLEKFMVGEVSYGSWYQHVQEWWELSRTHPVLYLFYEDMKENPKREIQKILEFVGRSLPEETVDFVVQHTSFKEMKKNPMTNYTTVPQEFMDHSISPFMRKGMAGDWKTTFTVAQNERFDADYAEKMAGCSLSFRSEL
Sequence of Microsomal glutathione S-transferase 2 (Q99735 whole entry): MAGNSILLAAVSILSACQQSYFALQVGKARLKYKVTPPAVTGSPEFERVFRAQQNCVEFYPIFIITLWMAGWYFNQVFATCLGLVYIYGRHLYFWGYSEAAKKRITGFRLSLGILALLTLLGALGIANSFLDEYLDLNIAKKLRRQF

C[C@]12CC[C@@H]3c4ccc(O)cc4CC[C@H]3[C@@H]1CC[C@@H]2O [ESTRADIOL]
Substrate: Sulfotransferase 1E1 | Sulfotransferase 2A1 | Sulfotransferase 1A1 | [1] | [2]

CC(C)Cc1ccc(C(C)C(=O)O)cc1 (stereo not drawn) [IBUPROFEN]
Substrate: [1] | [3] | [4] | [5] | [6] | [7]

CC(C)CCC[C@@H](C)[C@H]1CC[C@H]2[C@@H]3CC=C4C[C@@H](O)CC[C@]4(C)[C@H]3CC[C@]12C [CHOLESTEROL]
Substrate: Sulfotransferase 2B1 [8]

O=[N+]([O-])c1ccc(Cl)c([N+](=O)[O-])c1 [DINITROCHLOROBENZENE]
Substrate: [9] | [10] | [11] | [12] | [13] | [14]

O=C1OC(C(O)CO)C(=O)C1=O (stereo not drawn) [DEHYDROASCORBIC ACID]
Substrate: [15] | [16]

C[C@]12CC[C@H]3[C@@H](CCC4=CC(=O)CC[C@@]43C)[C@@H]1CC[C@@H]2O [TESTOSTERONE]
Substrate: Sulfotransferase 2A1 | [2]

CCCC(CCC)C(=O)O [VALPROIC ACID]
Substrate: [1] | [17] | [5] | [6]

C[C@]12CC[C@H](O)CC1=CC[C@@H]1[C@@H]2CC[C@]2(C)C(=O)CC[C@@H]12 [PRASTERONE]
Substrate: Sulfotransferase 1E1 | Sulfotransferase 2A1 | Sulfotransferase 2B1 [18] | Sulfotransferase 2B1 [8]

CC(=O)[C@H]1CC[C@H]2[C@@H]3CC=C4C[C@@H](O)CC[C@]4(C)[C@H]3CC[C@]12C [PREGNENOLONE]
Substrate: Sulfotransferase 1E1 | Sulfotransferase 2A1 | Sulfotransferase 2B1 [18]
